Reference: publication PMC10924921, “Mi-2β promotes immune evasion in melanoma by activating EZH2 methylation” (Nature Communications, 2024)

Columns and labels:
Experiment in all cases: biochemical
Set-up in all cases: KINOMEscan active-site competition binding panel (468 kinase assays), per cent of control at 1000 nM
Conditions in all cases: KINOMEscan per cent of control (binding competition); read-out: Percent Control
[1] = target: T1, YSK4 (Homo sapiens, UniProt Q56UN5)
T1 construct: gene MAP3K19
Description: (§1) Figure S7 / Percent Control

[2] = target: LATS1 (Homo sapiens, UniProt O95835)
Description: as §1

[3] = target: GRK1 (Homo sapiens, UniProt Q15835)
Description: as §1

[4] = target: STK36 (Homo sapiens, UniProt Q9NRP7)
Description: as §1

[5] = target: FLT1 (Homo sapiens, UniProt P17948)
Description: as §1

[6] = target: CAMK2G (Homo sapiens, UniProt Q13555)
Description: as §1

[7] = target: MAK (Homo sapiens, UniProt P20794)
Description: as §1

[8] = target: ERBB2 (Homo sapiens, UniProt P04626)
Description: as §1

[9] = target: PIK3CA(E545A) (Homo sapiens, UniProt P42336, E545A)
Description: as §1

[10] = target: SRPK1 (Homo sapiens, UniProt Q96SB4)
Description: as §1

[11] = target: DYRK1A (Homo sapiens, UniProt Q13627)
Description: as §1

[12] = target: T2, PKAC-beta (Homo sapiens, UniProt P22694)
T2 construct: gene PRKACB
Description: as §1

[13] = target: RIPK1 (Homo sapiens, UniProt Q13546)
Description: as §1

[14] = target: ERBB3 (Homo sapiens, UniProt P21860)
Description: as §1

[15] = target: PIK3CA(E542K) (Homo sapiens, UniProt P42336, E542K)
Description: as §1

[16] = target: BMPR1B (Homo sapiens, UniProt O00238)
Description: as §1

[17] = target: GRK7 (Homo sapiens, UniProt Q8WTQ7)
Description: as §1

[18] = target: T3, JNK3 (Homo sapiens, UniProt P53779)
T3 construct: gene MAPK10
Description: as §1

[19] = target: MKNK1 (Homo sapiens, UniProt Q9BUB5)
Description: as §1

[20] = target: TXK (Homo sapiens, UniProt P42681)
Description: as §1

[21] = target: T4, p38-alpha (Homo sapiens, UniProt Q16539)
T4 construct: gene MAPK14
Description: as §1

[22] = target: CSK (Homo sapiens, UniProt P41240)
Description: as §1

[23] = target: CAMK4 (Homo sapiens, UniProt Q16566)
Description: as §1

[24] = target: STK33 (Homo sapiens, UniProt Q9BYT3)
Description: as §1

[25] = target: FLT3(ITD,F691L) (Homo sapiens, UniProt P36888, F691L/ITD)
Description: as §1

Chain of PIK3CA(E542K) (P42336 whole entry E542K): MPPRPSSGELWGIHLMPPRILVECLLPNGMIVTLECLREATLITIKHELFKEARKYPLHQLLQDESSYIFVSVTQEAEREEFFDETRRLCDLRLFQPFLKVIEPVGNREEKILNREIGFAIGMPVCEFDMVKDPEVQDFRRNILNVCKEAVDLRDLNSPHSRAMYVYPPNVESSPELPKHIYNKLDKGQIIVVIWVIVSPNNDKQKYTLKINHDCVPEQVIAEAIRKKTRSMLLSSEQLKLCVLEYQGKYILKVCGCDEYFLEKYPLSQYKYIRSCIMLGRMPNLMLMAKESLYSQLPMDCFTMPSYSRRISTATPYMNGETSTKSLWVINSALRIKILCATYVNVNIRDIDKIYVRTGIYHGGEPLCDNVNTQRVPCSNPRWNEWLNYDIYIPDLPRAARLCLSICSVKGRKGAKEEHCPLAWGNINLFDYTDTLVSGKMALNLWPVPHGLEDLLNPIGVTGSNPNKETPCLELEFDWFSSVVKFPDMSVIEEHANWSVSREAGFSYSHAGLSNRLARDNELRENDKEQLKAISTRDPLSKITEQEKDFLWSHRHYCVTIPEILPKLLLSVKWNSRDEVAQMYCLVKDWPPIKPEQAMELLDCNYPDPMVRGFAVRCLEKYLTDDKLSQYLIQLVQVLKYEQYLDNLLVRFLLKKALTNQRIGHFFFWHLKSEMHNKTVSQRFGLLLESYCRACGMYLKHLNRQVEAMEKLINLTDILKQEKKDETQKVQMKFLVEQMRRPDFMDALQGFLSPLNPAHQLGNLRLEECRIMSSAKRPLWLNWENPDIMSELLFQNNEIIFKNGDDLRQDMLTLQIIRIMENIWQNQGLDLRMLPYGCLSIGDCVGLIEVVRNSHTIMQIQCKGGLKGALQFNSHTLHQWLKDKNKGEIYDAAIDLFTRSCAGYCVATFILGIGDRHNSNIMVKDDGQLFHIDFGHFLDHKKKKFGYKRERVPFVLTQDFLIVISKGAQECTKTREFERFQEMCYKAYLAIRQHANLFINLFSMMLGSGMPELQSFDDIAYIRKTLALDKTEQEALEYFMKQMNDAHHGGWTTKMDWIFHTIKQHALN
Chain of MAK (P20794 whole entry): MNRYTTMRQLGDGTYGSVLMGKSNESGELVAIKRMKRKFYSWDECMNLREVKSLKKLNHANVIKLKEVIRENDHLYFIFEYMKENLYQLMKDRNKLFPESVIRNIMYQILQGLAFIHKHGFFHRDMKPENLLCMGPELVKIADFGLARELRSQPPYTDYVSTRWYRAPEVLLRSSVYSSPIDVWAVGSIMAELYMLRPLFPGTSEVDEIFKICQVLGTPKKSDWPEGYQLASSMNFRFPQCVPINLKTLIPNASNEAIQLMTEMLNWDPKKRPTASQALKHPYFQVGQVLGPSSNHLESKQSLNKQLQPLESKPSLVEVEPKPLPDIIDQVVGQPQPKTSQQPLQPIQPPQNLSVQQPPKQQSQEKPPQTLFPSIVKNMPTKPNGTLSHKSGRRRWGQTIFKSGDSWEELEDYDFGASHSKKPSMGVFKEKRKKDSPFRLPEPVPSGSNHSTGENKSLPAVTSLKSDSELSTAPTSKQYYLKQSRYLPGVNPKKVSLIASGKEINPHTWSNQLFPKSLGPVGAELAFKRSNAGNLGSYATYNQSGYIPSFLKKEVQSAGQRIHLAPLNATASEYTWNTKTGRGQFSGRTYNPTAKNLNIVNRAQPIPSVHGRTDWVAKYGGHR
Chain of CAMK4 (Q16566 whole entry): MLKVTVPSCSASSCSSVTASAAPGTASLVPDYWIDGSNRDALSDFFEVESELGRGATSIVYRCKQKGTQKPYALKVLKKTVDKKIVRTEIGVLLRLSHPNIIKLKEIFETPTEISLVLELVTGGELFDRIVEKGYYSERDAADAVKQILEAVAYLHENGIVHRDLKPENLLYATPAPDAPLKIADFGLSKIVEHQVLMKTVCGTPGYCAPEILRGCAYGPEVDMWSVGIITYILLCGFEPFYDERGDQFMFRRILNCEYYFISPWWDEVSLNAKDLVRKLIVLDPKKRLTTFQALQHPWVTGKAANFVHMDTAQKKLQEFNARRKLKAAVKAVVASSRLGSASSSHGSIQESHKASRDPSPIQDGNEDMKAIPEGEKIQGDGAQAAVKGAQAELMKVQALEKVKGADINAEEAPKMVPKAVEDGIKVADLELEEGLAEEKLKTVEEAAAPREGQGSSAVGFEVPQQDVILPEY
Chain of ERBB3 (P21860 whole entry): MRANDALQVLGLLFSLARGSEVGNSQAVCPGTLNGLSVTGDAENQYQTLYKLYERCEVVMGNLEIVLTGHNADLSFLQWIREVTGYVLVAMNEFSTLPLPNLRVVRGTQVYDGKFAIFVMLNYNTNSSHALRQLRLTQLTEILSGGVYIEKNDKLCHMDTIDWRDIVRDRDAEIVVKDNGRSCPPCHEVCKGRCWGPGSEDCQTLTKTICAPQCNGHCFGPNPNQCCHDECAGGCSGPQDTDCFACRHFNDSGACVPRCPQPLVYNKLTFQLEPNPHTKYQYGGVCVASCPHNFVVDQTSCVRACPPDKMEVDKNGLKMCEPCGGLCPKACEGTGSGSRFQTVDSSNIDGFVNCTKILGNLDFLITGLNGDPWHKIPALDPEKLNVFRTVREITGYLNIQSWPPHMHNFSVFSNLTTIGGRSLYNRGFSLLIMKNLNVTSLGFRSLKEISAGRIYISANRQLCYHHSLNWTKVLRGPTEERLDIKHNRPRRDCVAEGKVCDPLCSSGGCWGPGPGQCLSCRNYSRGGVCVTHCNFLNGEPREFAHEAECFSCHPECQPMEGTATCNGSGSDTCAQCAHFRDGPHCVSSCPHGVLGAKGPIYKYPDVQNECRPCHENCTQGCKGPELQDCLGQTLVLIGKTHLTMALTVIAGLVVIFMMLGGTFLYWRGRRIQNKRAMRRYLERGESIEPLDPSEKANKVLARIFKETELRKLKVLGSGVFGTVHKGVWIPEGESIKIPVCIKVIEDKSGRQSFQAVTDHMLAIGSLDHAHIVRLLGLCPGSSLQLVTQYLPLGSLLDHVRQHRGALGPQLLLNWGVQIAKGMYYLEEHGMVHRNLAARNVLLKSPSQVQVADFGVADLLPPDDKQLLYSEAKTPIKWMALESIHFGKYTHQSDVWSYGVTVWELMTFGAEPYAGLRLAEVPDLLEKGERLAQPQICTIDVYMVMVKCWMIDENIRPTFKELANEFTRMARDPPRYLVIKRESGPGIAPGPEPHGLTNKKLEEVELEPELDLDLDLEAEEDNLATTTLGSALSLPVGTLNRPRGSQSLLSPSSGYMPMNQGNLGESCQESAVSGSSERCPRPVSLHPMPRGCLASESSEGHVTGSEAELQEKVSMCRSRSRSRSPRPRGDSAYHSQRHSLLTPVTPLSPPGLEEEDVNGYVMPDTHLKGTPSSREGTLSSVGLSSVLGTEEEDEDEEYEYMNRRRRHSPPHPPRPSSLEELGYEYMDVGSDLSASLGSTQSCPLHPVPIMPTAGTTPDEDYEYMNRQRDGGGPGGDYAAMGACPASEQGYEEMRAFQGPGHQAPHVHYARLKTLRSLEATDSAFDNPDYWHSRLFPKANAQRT
T3 sequence (P53779 whole entry): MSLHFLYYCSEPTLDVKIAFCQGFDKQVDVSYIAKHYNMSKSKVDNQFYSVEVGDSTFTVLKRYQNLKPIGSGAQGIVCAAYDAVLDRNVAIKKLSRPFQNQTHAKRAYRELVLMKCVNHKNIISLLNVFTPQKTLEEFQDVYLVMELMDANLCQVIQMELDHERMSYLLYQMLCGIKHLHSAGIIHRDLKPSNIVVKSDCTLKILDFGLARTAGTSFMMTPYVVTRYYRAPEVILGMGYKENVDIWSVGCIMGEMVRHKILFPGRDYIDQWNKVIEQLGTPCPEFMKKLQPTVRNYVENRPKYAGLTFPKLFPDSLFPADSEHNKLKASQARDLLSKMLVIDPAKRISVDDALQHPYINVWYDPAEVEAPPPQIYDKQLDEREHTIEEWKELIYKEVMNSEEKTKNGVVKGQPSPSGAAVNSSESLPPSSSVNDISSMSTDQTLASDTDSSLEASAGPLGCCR
Chain of GRK1 (Q15835 whole entry): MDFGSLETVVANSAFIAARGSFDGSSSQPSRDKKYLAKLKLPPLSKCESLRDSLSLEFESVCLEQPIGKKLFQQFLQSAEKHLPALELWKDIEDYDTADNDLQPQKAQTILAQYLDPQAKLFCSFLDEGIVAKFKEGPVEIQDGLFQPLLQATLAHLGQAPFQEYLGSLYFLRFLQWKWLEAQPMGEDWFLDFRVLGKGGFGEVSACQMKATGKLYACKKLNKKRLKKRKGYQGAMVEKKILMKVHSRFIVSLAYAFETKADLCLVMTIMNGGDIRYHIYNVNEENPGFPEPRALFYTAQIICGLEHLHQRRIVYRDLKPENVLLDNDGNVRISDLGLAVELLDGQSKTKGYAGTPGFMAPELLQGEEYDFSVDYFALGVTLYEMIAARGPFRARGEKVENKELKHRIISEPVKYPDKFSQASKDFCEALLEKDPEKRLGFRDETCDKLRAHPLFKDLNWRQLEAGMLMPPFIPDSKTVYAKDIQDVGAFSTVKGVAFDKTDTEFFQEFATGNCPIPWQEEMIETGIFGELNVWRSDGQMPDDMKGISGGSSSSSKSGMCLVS
Chain of MKNK1 (Q9BUB5 whole entry): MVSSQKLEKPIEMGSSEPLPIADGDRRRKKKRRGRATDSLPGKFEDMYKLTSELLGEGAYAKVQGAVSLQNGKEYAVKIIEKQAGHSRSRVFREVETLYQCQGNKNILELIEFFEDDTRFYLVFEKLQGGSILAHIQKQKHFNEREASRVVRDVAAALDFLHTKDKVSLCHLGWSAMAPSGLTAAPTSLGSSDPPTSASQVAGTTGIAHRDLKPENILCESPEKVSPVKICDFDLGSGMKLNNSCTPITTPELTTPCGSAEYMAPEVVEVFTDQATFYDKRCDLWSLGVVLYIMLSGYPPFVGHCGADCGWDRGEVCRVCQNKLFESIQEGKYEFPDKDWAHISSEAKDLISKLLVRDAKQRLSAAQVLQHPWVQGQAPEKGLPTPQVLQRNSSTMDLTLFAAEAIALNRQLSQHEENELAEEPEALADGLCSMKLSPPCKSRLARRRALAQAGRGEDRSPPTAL
Chain of PIK3CA(E545A) (P42336 whole entry E545A): as the sequence (P42336 whole entry E542K) above, with K542E, E545A counted along it

`Cn1c(=O)[nH]c2ccc(-c3cccc(C(=O)NC4CCn5ccnc5C4)c3)cc21` (stereo not shown) [Z36-MP5] was tested, and the remaining binding at 1 µM [1] was 85%, the remaining binding at 1 µM [2] was 100% and the remaining binding at 1 µM [3] was 29%. The remaining binding at 1 µM [4] was 77%, the remaining binding at 1 µM [5] was 95% and the remaining binding at 1 µM [6] was 55%. The remaining binding at 1 µM [7] was 88%, the remaining binding at 1 µM [8] was 100% and the remaining binding at 1 µM [9] was 89%. The remaining binding at 1 µM [10] was 55%, the remaining binding at 1 µM [11] was 60% and the remaining binding at 1 µM [12] was 96%. The remaining binding at 1 µM [13] was 87%, the remaining binding at 1 µM [14] was 100% and the remaining binding at 1 µM [15] was 70%. For the same compound, the remaining binding at 1 µM [16] was 55%, the remaining binding at 1 µM [17] was 90% and the remaining binding at 1 µM [18] was 100%. It also gave a remaining binding at 1 µM [19] of 100%, a remaining binding at 1 µM [20] of 98% and a remaining binding at 1 µM [21] of 63%. It also gave a remaining binding at 1 µM [22] of 98%, a remaining binding at 1 µM [23] of 98% and a remaining binding at 1 µM [24] of 92%. The remaining binding at 1 µM [25] was 57%.
